The results in this text go back to PubChem BioAssay AID1259407 (Chemical Carcinogenesis Research Information System (CCRIS), 2018).

Active and inactive are the calls of the source. No rule for the calls is given here.

This data set deals with CCRIS mutagenicity, Ames/micronucleus/aberration tests. Description: CCRIS mutagenicity studies.
[1] abbreviates: Test System: AMES SALMONELLA TYPHIMURIUM, Strain/Indicator: TA100, Metabolic Activation: NONE, Method: STANDARD PLATE.
Setting [2] is: Test System: AMES SALMONELLA TYPHIMURIUM, Strain/Indicator: TA100, Metabolic Activation: RAT, LIVER, S-9, PHENOBARBITAL, Method: STANDARD PLATE.
Where [3] appears, read: Test System: AMES SALMONELLA TYPHIMURIUM, Strain/Indicator: TA98, Metabolic Activation: NONE, Method: STANDARD PLATE.
The mark [4] stands for this setting: Test System: AMES SALMONELLA TYPHIMURIUM, Strain/Indicator: TA100, Metabolic Activation: NONE, Method: PREINCUBATION

Take `CN(C)N=Nc1ccc(C(=O)O)cc1`: the mutagenic call runs as follows: (Test System: AMES SALMONELLA TYPHIMURIUM, Strain/Indicator: G46, Metabolic Activation: NONE, Method: STANDARD PLATE) “inactive; negative”; (Test System: AMES SALMONELLA TYPHIMURIUM, Strain/Indicator: G46, Metabolic Activation: RAT, LIVER, S-9, PHENOBARBITAL, Method: STANDARD PLATE) “active; positive”; (Test System: AMES SALMONELLA TYPHIMURIUM, Strain/Indicator: TA92, Metabolic Activation: NONE, Method: STANDARD PLATE) “active; positive”; (Test System: AMES SALMONELLA TYPHIMURIUM, Strain/Indicator: TA92, Metabolic Activation: RAT, LIVER, S-9, PHENOBARBITAL, Method: PREINCUBATION) “inactive; negative”; (Test System: AMES SALMONELLA TYPHIMURIUM, Strain/Indicator: TA92, Metabolic Activation: RAT, LIVER, S-9, PHENOBARBITAL, Method: STANDARD PLATE) “inactive; negative”; under setting [1], “inactive; negative”. The mutagenic call under setting [2] was “inactive; negative”; the mutagenic call (Test System: E. COLI, Strain/Indicator: TM6, Metabolic Activation: NONE, Method: STANDARD PLATE) was “active; positive”; the mutagenic call (Test System: E. COLI, Strain/Indicator: TM6, Metabolic Activation: RAT, LIVER, S-9 PHENOBARBITAL, Method: STANDARD PLATE) is “active; positive”; the mutagenic call (Test System: E. COLI, Strain/Indicator: TM9, Metabolic Activation: NONE, Method: STANDARD PLATE) was “active; positive”; the mutagenic call (Test System: E. COLI, Strain/Indicator: TM9, Metabolic Activation: RAT, LIVER, S-9 PHENOBARBITAL, Method: STANDARD PLATE) was “active; positive”; the mutagenic call (Test System: E. COLI, Strain/Indicator: WP2, Metabolic Activation: NONE, Method: STANDARD PLATE) is “active; positive”. Moreover, the mutagenic call (Test System: E. COLI, Strain/Indicator: WP2, Metabolic Activation: RAT, LIVER, S-9 PHENOBARBITAL, Method: STANDARD PLATE) is “active; positive”; the mutagenic call (Test System: E. COLI, Strain/Indicator: WP2 UVRA, Metabolic Activation: NONE, Method: STANDARD PLATE) was “active; positive”; the mutagenic call (Test System: E. COLI, Strain/Indicator: WP2 UVRA, Metabolic Activation: RAT, LIVER, S-9 PHENOBARBITAL, Method: STANDARD PLATE) was “active; positive”.

As to `CN(C)c1ccc(N=Nc2ccc(S(=O)(=O)O)cc2)cc1`, the mutagenic call (Test System: Ames Salmonella typhimurium, Strain/Indicator: TA102, Metabolic Activation: None, Method: Preincubation) is “inactive; negative”; the mutagenic call (Test System: Ames Salmonella typhimurium, Strain/Indicator: TA102, Metabolic Activation: Rat, Liver, S-9, Aroclor 1254, Method: Preincubation) is “active; positive. statistically significant at highest dose”; the mutagenic call (Test System: Ames Salmonella typhimurium, Strain/Indicator: TA104, Metabolic Activation: None, Method: Preincubation) is “inactive; negative”; the mutagenic call (Test System: Ames Salmonella typhimurium, Strain/Indicator: TA104, Metabolic Activation: Rat, Liver, S-9, Aroclor 1254, Method: Preincubation) is “active; positive. statistically significant at highest dose”.

In the case of `OC1C=CC=CC1O` (stereo not drawn), the mutagenic call is “inactive; negative” under setting [3]; “inactive; negative” (Test System: AMES SALMONELLA TYPHIMURIUM, Strain/Indicator: TA98, Metabolic Activation: RAT, LIVER, S-9, PHENOBARBITAL, Method: STANDARD PLATE); “inactive; negative” under setting [4]; “inactive; negative” under setting [1]; “active; positive” (Test System: AMES SALMONELLA TYPHIMURIUM, Strain/Indicator: TA100, Metabolic Activation: RAT, LIVER, S-9, PHENOBARBITAL, Method: PREINCUBATION); “active; positive” under setting [2]. Besides, the mutagenic call (Test System: AMES SALMONELLA TYPHIMURIUM, Strain/Indicator: TM677/8-AZAGUANINE, Metabolic Activation: NONE, Method: PREINCUBATION) was “inactive; negative”; the mutagenic call (Test System: AMES SALMONELLA TYPHIMURIUM, Strain/Indicator: TM677/8-AZAGUANINE, Metabolic Activation: NONE, Method: STANDARD PLATE) was “active; positive”; the mutagenic call (Test System: AMES SALMONELLA TYPHIMURIUM, Strain/Indicator: TM677/8-AZAGUANINE, Metabolic Activation: RAT, LIVER, S-9, PHENOBARBITAL, Method: PREINCUBATION) was “active; positive”.

Consider `O=[N+]([O-])[O-].O=[N+]([O-])[O-].O=[N+]([O-])[O-].[Gd+3]`, for which the mutagenic call (Test System: UDS HUMAN LYMPHOCYTES, Strain/Indicator: THYMIDINE INCORPORATION, Metabolic Activation: NONE, Method: LIQUID SCINTILLATION COUNTING) is “active; positive”.

On to `NCCCNCCCN`, for which the mutagenic call was “inactive; negative” (Test System: AMES SALMONELLA TYPHIMURIUM, Strain/Indicator: TA98, Metabolic Activation: HAMSTER, LIVER, S-9, AROCLOR 1254 (10%), Method: PREINCUBATION); “inactive; negative” (Test System: AMES SALMONELLA TYPHIMURIUM, Strain/Indicator: TA98, Metabolic Activation: NONE, Method: PREINCUBATION); “inactive; negative” (Test System: AMES SALMONELLA TYPHIMURIUM, Strain/Indicator: TA98, Metabolic Activation: RAT, LIVER, S-9, AROCLOR 1254 (10%), Method: PREINCUBATION); “inactive; negative” (Test System: AMES SALMONELLA TYPHIMURIUM, Strain/Indicator: TA98, Metabolic Activation: RAT, LIVER, S-9, PCB, Method: PREINCUBATION); “inactive; negative” (Test System: AMES SALMONELLA TYPHIMURIUM, Strain/Indicator: TA100, Metabolic Activation: HAMSTER, LIVER, S-9, AROCLOR 1254 (10%), Method: PREINCUBATION); “inactive; negative” under setting [4]. Further, the mutagenic call is “inactive; negative” (Test System: AMES SALMONELLA TYPHIMURIUM, Strain/Indicator: TA100, Metabolic Activation: RAT, LIVER, S-9, AROCLOR 1254 (10%), Method: PREINCUBATION); “inactive; negative” (Test System: AMES SALMONELLA TYPHIMURIUM, Strain/Indicator: TA100, Metabolic Activation: RAT, LIVER, S-9, PCB, Method: PREINCUBATION); “inactive; negative” (Test System: AMES SALMONELLA TYPHIMURIUM, Strain/Indicator: TA1535, Metabolic Activation: HAMSTER, LIVER, S-9, AROCLOR 1254 (10%), Method: PREINCUBATION); “inactive; negative” (Test System: AMES SALMONELLA TYPHIMURIUM, Strain/Indicator: TA1535, Metabolic Activation: NONE, Method: PREINCUBATION); “inactive; negative” (Test System: AMES SALMONELLA TYPHIMURIUM, Strain/Indicator: TA1535, Metabolic Activation: RAT, LIVER, S-9, AROCLOR 1254 (10%), Method: PREINCUBATION); “inactive; negative” (Test System: AMES SALMONELLA TYPHIMURIUM, Strain/Indicator: TA1537, Metabolic Activation: HAMSTER, LIVER, S-9, AROCLOR 1254 (10%), Method: PREINCUBATION). The mutagenic call was “inactive; negative” (Test System: AMES SALMONELLA TYPHIMURIUM, Strain/Indicator: TA1537, Metabolic Activation: NONE, Method: PREINCUBATION) and “inactive; negative” (Test System: AMES SALMONELLA TYPHIMURIUM, Strain/Indicator: TA1537, Metabolic Activation: RAT, LIVER, S-9, AROCLOR 1254 (10%), Method: PREINCUBATION).

For the compound `O=C(CCCN1CC=C(n2c(=O)[nH]c3ccccc32)CC1)c1ccc(F)cc1`, the mutagenic call (End Point: IN VITRO CHROMOSOMAL ABERRATIONS, Test System: HUMAN LYMPHOCYTES, Metabolic Activation: NONE) is “inactive; negative”.

For the compound `COC(=O)c1occ(-c2ccccc2)c1-c1ccccc1`, the mutagenic call reads like this: under setting [3], “inactive; negative”; under setting [1], “inactive; negative”.

`COc1cc2c(c3oc(=O)c4c(c13)CC[C@H]4O)[C@@H]1C=CO[C@@H]1O2`: the mutagenic call under setting [1] is “inactive; negative” and the mutagenic call (Test System: AMES SALMONELLA TYPHIMURIUM, Strain/Indicator: TA100, Metabolic Activation: RAT, LIVER, S-9, AROCLOR 1254, Method: STANDARD PLATE) is “active; positive”.
